Measurements: US20020155518A1, “Method of detecting compounds that control fungal diseases via effects on sporulation” (priority 2000, published 2002)

What was measured:
[1] = tested on: Leptosphaeria (Septoria) nodorum; experiment: Protectant foliar spray test against wheat L. nodorum blotch; format: in vivo; details: wheat, foliar spray before inoculation; vs untreated inoculated controls; further: key: '+++' =high control; '++' =moderate control; '+' =low control; '0'=no control
[2] = tested on: Rice Blast (Magnaporthe grisea); format: in vivo; details: foliar spray before inoculation, vs untreated inoculated controls
[3] = tested on: Wheat Powdery Mildew (Blumeria [Erysiphe] graminis f.sp. tritici); details: in vivo; further: key: '+++' =high control; '++' =moderate control; '+' =low control; '0'=no control
[4] = tested on: Apple Scab (Venturia inaequalis); experiment: Protectant foliar spray test against apple scab; format: in vivo; details: apple seedlings, foliar spray before inoculation; vs untreated inoculated controls; further: key: '+++' =high control; '++' =moderate control; '+' =low control; '0'=no control

Compound | Level of Plant Disease Control, Wheat L. nodorum [1] | Level of Plant Disease Control, Rice Blast [2] | Level of Plant Disease Control, Wheat Powdery Mildew [3] | Level of Plant Disease Control, Apple Scab [4]
COc1cc(C)c(C(=O)c2c(OC)ccc(Br)c2C)c(OCc2ccccc2C)c1OC [AA, (3-bromo-6-methoxy-2-methyiphenyl)[3,4-dimethoxy-6-methyl-2-[(2-methylphenyl)methoxy]phenyl]methanone] | 0 | 0 | +++ | 0
CCCCOc1c(OC)cc(C)c(C(=O)c2c(Cl)cccc2Cl)c1OCCCC [B, (2,3-dibutoxy-4-methoxy-6-methylphenyl)(2,6-dichlorophenyl)methanone] | 0 | 0 | +++ | 0
CCCOc1c(OC)cc(C)c(C(=O)c2c(OC)ccc(Br)c2C)c1OCc1ccc(C(C)(C)C)cc1 [BB, (3-bromo-6-methoxy-2-methylphenyl)[4-methoxy-6-methyl-3-propoxy-2-[[4-(1,1-dimethylethyl)phenyl]methoxy]phenyl]methanone] | 0 | 0 | +++ | 0
COc1cc(C)c(C(=O)c2c(OC)ccc(Br)c2C)c(OCc2ccccc2F)c1OC [C, (3-bromo-6-methoxy-2-methylphenyl)[3,4-dimethoxy-6-methyl-2-[(2-fluorophenyl)methoxy]phenyl]methanone] |  | ++ | +++ | 0
CCCOc1c(OC)cc(C)c(C(=O)c2c(OC)ccc(Br)c2C)c1OCc1ccc(C(F)(F)F)cc1 [CC, (3-bromo-6-methoxy-2-methylphenyl)[4-methoxy-6-methyl-3-propoxy-2-[[4-(trifluoromethyl)phenyl]methoxy]phenyl]methanone] | 0 | 0 | +++ | 0
COc1cc(C)c(C(=O)c2c(C)cccc2C)c(OCc2cccc(C)c2)c1OC [Compound E, [3,4-dimethoxy-6-methyl-2-[(3-methylphenyl)methoxy]phenyl](2,6-dimethylphenyl)methanone] |  |  | +++ | 
COc1cc(C)c(C(=O)c2c(O)ccc(Cl)c2C)c(OC)c1OC [Compound N, (3-chloro-6-hydroxy-2-methylphenyl)(2,3,4-trimethoxy-6-methylphenyl)methanone] | 0 | ++ | +++ | 0
COc1cc(C)c(C(=O)c2c(OC)ccc(Br)c2C)c(OCc2cccc(C)c2)c1OC [Compound S, (3-bromo-6-methoxy-2-methylphenyl)[3,4-dimethoxy-6-methyl-2-[(3-methylphenyl)methoxy]phenyl]methanone] |  |  | +++ | 
COc1cc(C)c(C(=O)c2c(Cl)cccc2Cl)c(OCc2ccc(F)cc2)c1OC [D, (2,6-dichlorophenyl)[2-[(4-fluorophenyl)methoxy]-3,4-dimethoxy-6-methylphenyl]methanone] |  |  | +++ | 
CCCOc1c(OC)cc(C)c(C(=O)c2c(OC)ccc(Cl)c2C)c1O [DD, (3-chloro-6-methoxy-2-methylphenyl)(2-hydroxy-4-methoxy-6-methyl-3-propoxyphenyl)methanone] | 0 | 0 | +++ | 0
COc1cc(C)c(C(=O)c2c(OC)ccc(Br)c2C)c(OCc2ccc(Cl)cc2)c1OC [EE, (3-bromo-6-methoxy-2-methylphenyl)[3,4-dimethoxy-6-methyl-2-[(4-chlorophenyl)methoxy]phenyl]methanone] | 0 | 0 | +++ | 0
COc1cc(C)c(C(=O)c2c(C)ccc3ccccc23)c(OC)c1OC [F, (2,3,4-trimethoxy-6-methylphenyl)(2-methyl-1-naphthalenyl)methanone] | 0 | ++ | +++ | 0
COc1cc(C)c(C(=O)c2c(C)cccc2OC)c(OC)c1OC [G, (2-methoxy-6-methylphenyl)(2,3,4-trimethoxy-6-methylphenyl)methanone] | 0 | 0 | +++ | 0
